Results on 1 compound are retold here after patent US11229712B2, “In vivo detection of a xenon-binding cage molecule” (Lakehead University, priority 2016, dated 2022).

Entries after “also recorded” stand apart in the source; their conditions may differ.

Data set [1] can be described thus: HyperCEST 129Xe MR imaging of syringes with CB6 blood solution and saturation map. It counts as physicochemical, bovine. The note with it: 2.5 mM CB6 in blood, on-resonance pre-pulses at 124.3 ppm (FIG. 4). The source says:
We obtained MR images of two syringes within the same field of view: one filled with a CB6 blood solution, the other with only a blood solution and no CB6 molecules (FIG. 4). Signal from the plasma, gas phase, and RBC-bound xenon is present in the control image (FIG. 4A). We observed a gas phase chemical shift artifact, offset by 43 pixels of 67.1 mm. Additionally, we observed a stronger gas phase signal from the control solution (right syringe) than the CB6 syringe (left syringe). We attribute this phenomenon to the differences in the extent of blood foam formation between the two solutions. The control solution foamed more than the CB6 solution, which provided a reservoir of gaseous hyperpolarized xenon to exchange with the xenon dissolved in the plasma providing a stronger xenon-plasma signal. […] A saturation map was produced (FIG. 4C) by normalizing each image by Its own background noise and subtracting the off-resonance control image from the HyperCEST saturation image and normalizing pixel-by-pixel, the off-resonance image. […]
^129Xe gas was polarized to 30% using a Xemed polarizer (Xemed, Durham, N.H.). […] The signal-noise ratio (SNR) of each spectrum was calculated using MATLAB (MathWorks, Natick Mass.). Signal depletion values due to the HyperCEST effect were measured by subtracting the HyperCEST saturation spectrum SNR from the control spectrum SNR and dividing by the control SNR.

Data set [2] is described as follows: In vivo HyperCEST 129Xe MR spectra of abdomen and brain after IV CB6. Set-up: species or system Sprague-Dawley rat. The note with it: 3 mL of 10 mM CB6 IV, pre-pulse +124.3 ppm. The method, then:
A 10 mM solution of the CB6 cage molecule dissolved in 1×PBS (pH 7.2) was prepared. 3 mL of the CB6 solution was injected into the tail vein catheter of a Sprague-Dawley rat and allowed to bio-distribute for 30 minutes. An endotracheal tube was surgically placed in the anaesthetized rat, and the rat was ventilated with 100% oxygen using a custom made ventilator. The rat was placed into a whole body custom made rat RF coil. Five seconds prior to xenon MR image acquisition, the rat was ventilated with a gas mixture of 80% xenon/20% oxygen. We acquired free induction decay (FID) magnetic resonance spectra (MRS) (FIGS. 5 & 6, A & D) from both the abdomen and head of the rat. […] We attribute this to a variety of susceptibility and line broadening effects occurring in vivo. […]
(§1) A midline incision was made in the neck of the rat and the trachea localized. […] A Positive End Expiratory Pressure of 20 mBar was measured. […]
30 minutes following injection of CB6, the ventilator was set to continuously dispense an 80% xenon/20% oxygen mixture to the rat. […] The signal to noise ratio (SNR) of each spectrum was calculated using MATLAB. The HyperCEST depletion at each chemical shift offset was calculated and plotted using Microsoft Excel.

Data set [3] is described as follows: In vivo HyperCEST 129Xe MRI saturation maps showing location of CB6. The note with it: rat. Set-up: species or system Sprague-Dawley rat.
Description: We then acquired ^1H turbo spin echo (TSE) MR images to correlate the xenon signal with its anatomical location. Immediately prior to ^129Xe image acquisition, the rat was ventilated with xenon as described above. The imaging sequence began with a saturation pre-pulse consisting of sixteen 20 ms 3-lobe sinc pulses with a 3 sec pulse interval applied at […] chemical shift frequencies. ^129Xe gradient echo (GE) images were acquired with both on-resonance and off-resonance saturation pre-pulses (FIGS. 6 & 7B & E). […] By applying the HyperCEST saturation pulses, we observed a reduction in signal in areas containing the CB6 molecules (FIGS. 6 & 7E).
We also created a HyperCEST saturation map in the brain of the rat (FIG. 8B).
All animal procedures were approved by the Lakehead University Animal Care Committee. Sprague-Dawley rats (n=6) (Charles River, Sherbrook QC) weighing between 300-400 g were anesthetized using 4 LPM of isoflurane until their corneal reflex became absent. […]
as §1
30 minutes following CB6 injection, the ventilator was set to dispense xenon to the rat. […] Images were collected and analyzed using MATLAB. […]

For data set [4] the following is noted: from reference 14; cited from earlier work.
Data set [5] is described as follows: HyperCEST depletion of CB6 in whole bovine blood (129Xe NMR spectra, 3T). The data set is classed as physicochemical. The method, then: […] of cucurbituril (CB6) was made by dissolving 50 mg of CB6 (Sigma-Aldrich, St. Louis, USA) in 10 mL of 1× phosphate buffered saline (PBS) at pH 7.2 at room temperature. The mixture was shaken gently. Ten mL of the CB6-PBS solution was mixed with 10 mL of fresh citrated bovine blood (Cederlane, Burlington Calif.) within a 30 mL syringe to create a 2.5 mM solution of CB6 in a blood solution. The control sample was prepared in an identical manner as the CB6 solution except CB6 was omitted. The control sample contained 10 mL of PBS and 10 mL of bovine blood.
Serial dilutions of CB6 in blood were made by adding an appropriate amount of blood to the 2.5 mM stock solution.
^129Xe gas was polarized to 30% using a Xemed polarizer (Xemed, Durham, N.H.). 7.5 mL of HP ^129Xe gas was introduced into the syringe over 5 s from the Tedlar bag in the pressure chamber which was pressurized at 3 psi above atmosphere. The solution and gas were mixed by agitating the syringe for approximately 12 s. Approximately 3 mL of ^129Xe dissolved in the blood/PBS solvent, the remaining undissolved ^129Xe was ejected from the syringe, yielding an effective ^129Xe concentration of 7.5 mM. The procedure was repeated for each spectral acquisition for the HyperCEST depletion spectrum. The 30 mL syringe containing the CB6-blood solution was placed inside a custom RF coil tuned to the Larmor frequency of 129Xe (35.33 MHz) at 3T. A Philips Achieva 3T clinical scanner was used to acquire all NMR spectra and MR images. A free induction decay (FID) was collected and the chemical shift of the ^129Xe/CB6 complex was noted. Ref B1 is a parameter of Philips MR scanners and is used to calculate the RF pulse length. The scanner uses the pulse length and flip angle to determine the amplitude of the RF pulse and field strength. For these experiments, the scanner set a B1 field strength of 1.18 μT. For the NMR spectra and images, a pulsed saturation pre-pulse train consisting of 16-6 ms 3-lobe sinc pulses with 3 ms pulse intervals was applied +124.3 ppm off resonance from the gas phase peak which corresponds to the chemical shift of the CB6-Xe complex. For initial HyperCEST depletion measurements, control spectra were collected with an off resonance saturation pre-pulse at 258 ppm. A HyperCEST depletion spectrum was collected by measuring HyperCEST depletion at various shift offsets from the CB6/Xe peak. A minimum of 3 spectra were collected at each chemical shift and the mean signal depletion was plotted as a function of the frequency of the chemical shift offset. The signal-noise ratio (SNR) of each spectrum was calculated using MATLAB (MathWorks, Natick Mass.). Signal depletion values due to the HyperCEST effect were measured by subtracting the HyperCEST saturation spectrum SNR from the control spectrum SNR and dividing by the control SNR.

With `O=C1N2CN3C(=O)N4CN5C(=O)N6CN7C(=O)N8CN9C(=O)N%10CN%11C(=O)N%12CN1C1C2N2CN%13C(=O)N(CN%14C(=O)N(CN%15C(=O)N(CN%16C(=O)N(CN%17C(=O)N(CN1C2=O)C%12C%11%17)C%10C9%16)C8C7%15)C6C5%14)C4C3%13` (centres unmarked) [CB6, cucurbituril], the “Depletion of dissolved phase xenon signal in MR image and saturation map” value in data set [1] is reported as “almost complete depletion; also recorded: strong CB6 HyperCEST signal depletion”. In addition, the “Reduction in signal intensity compared to the off-resonance control spectrum” value in data set [2] (rat abdomen, 30 minutes) is 86%. Moreover, the “Reduction in signal intensity of the MR signal” value in data set [2] (rat brain) was found to be 38%. Further, the “Location of CB6 in HyperCEST saturation map” value in data set [3] (3 mL of 10 mM CB6 IV, imaging 30 minutes after injection) was “heart, lungs, aorta, kidneys, and bladder; also recorded: brain, heart, lungs, aorta, carotid arteries, and kidneys”. Moreover, the “Excretion of CB6” value in data set [3] (weak HyperCEST signal from the bladder) is “renal clearance into the bladder; also recorded: excreted by the kidneys”. The Xe-CB6 exchange in data set [4] was 1470 s⁻¹. Moreover, the “HyperCEST depletion as a function of CB6 concentration” value is given as 14% in data set [5] (250 μM CB6 in whole bovine blood (FIG. 3)) and 80% in data set [5] (2.5 mM CB6 in whole bovine blood (FIG. 3)). For the same compound, the “HyperCEST depletion in the dissolved phase xenon signal” value in data set [5] (2.5 mM CB6 in blood and PBS, saturation pre-pulse train at +124.3 ppm (FIG. 1)) was determined as 84%. Also, the “HyperCEST signal depletion, local minimum of depletion spectrum” value in data set [5] (CB6 in blood, pulsed at +124.3 ppm (FIG. 2)) was 74%. In addition, the “Lowest CB6 concentration at which HyperCEST depletion was measurable” value in data set [5] (serial dilutions of CB6 in blood) was found to be 10 µM.
